Experimental data: patent publication US20210007360A1, “SOLUTIONS COMPRISING OZONIZED OIL” (priority 2018, published 2021)

Legend:
[1] = cited from earlier work
knees of patients = test: Intra-articular ozone and PRP treatment of knees, VAS scores; assay type: in vivo, human; conditions: 8 sessions of ozone and 2 sessions of PRP, 187 knees of 100 patients, baseline 8.5
Source text: Ozone gas injection may cause short-term burning and itching. However, this effect is rarely seen in intramuscular injections. For this reason, ozonide solutions comprising local anesthetic should be preferred especially if superficial injection will be performed. […] It is known that it prevents loss of cartilage by increasing oxygenation of the joint cartilage and reduces pain due to the analgesic effect with its anti-inflammatory effect. There are many publications in the literature about this issue. Similarly, in our own research, it was observed that VAS scores decreased from 8.5 to 4 on average as a result of the application of 8 sessions of ozone and 2 sessions of PRP treatment on 187 knees of 100 patients. In these applications, 20 micrograms of ozone are given as 20 ml (cc). That is, 400 micrograms of ozone have been applied. […] It can be applied at most twice a week. In addition, it can be combined with local anesthetic and anti-inflammatory agents. Vitamin E, which becomes popular in experimental studies in recent years, can be applied together with oil solutions and anti-inflammatory drugs. Hyaluronic acid is known to increase cartilage matrix in the intraarticular injection. It is known that better results are obtained with the ozone treatment and hyaluronic acid combinations. […]

[2] = system: patients diagnosed with a cervical disc hernia; test: Regional injections of ozone and PRP in cervical disc hernia, VAS pain score; assay type: in vivo, human; conditions: 8 sessions of ozone, 2 sessions of PRP, 66 patients, 9.3 at the beginning
Method: Cervical disc and spinal disc hernias are one of the common health issues. In the studies we conduct on 66 patients diagnosed with a cervical disc hernia, the pain score is evaluated according to the VAS in 1 month, 4 months and 1 year after the regional injections of 8 sessions of ozone, 2 sessions of PRP. The pain score was 9.3 at the beginning, 6.9 in the first month, 4.8 in the 4th month and 3.6 at the end of the first year. It is also found in the literature that the regional injections of ozone are so effective. However, to perform these applications, there is a need for a clinic or a hospital where ozone treatment is offered. The dosages of solutions of ozonized oil or ozonides in water in regional applications are also applicable here. Depending on the size of the region, the ozonized oil or ozonide solution of 2-4 mg (2000-4000 ppm), which is made with ozonides comprising 10% ozone may be injected into paravertebral muscles and subcutaneous tissue to be able to benefit from anti-inflammatory and analgesic effects. However, with tissue oxygenation, dissolution of muscle spasm, and increased blood supply to the hernia, a long-acting treatment and shrinking of the hernia is provided.

[3] = 20° C.; cited from earlier work

## CCN(CC)CC(=O)Nc1c(C)cccc1C [Lidocaine]
[1]; normal injection
  duration of effect in the injection zone: up to 2 hours

## CCCCN1CCCCC1C(=O)Nc1c(C)cccc1C (stereo not shown) [bupivacaine]
[1]; injection in oil
  duration of local effect: 72 h

## O=[O+][O-] [ozone]
Knees of patients
  VAS score after treatment, average: 4
[2]
  VAS pain score at the end of the first year: 3.6
  VAS pain score in the 4th month: 4.8
  VAS pain score in the first month: 6.9
[3]
  half life: 40 min
